According to ChEMBL document CHEMBL4689842, “EUbOPEN Chemogenomics Library wave 1” (2021):

Experiments:
Assay type in all cases: toxicity, cell-based
[1] = tested on: HEK-293T; test: Incucyte cell viability with HEK293T; settings: human, 10 µM, compound concentration 10 uM
[2] = tested on: Fibroblast; test: Incucyte cell viability with human fibroblast; settings: 10 µM, compound concentration 10 uM
[3] = tested on: U2OS; test: Incucyte cell viability with U2OS; settings: human, 10 µM, compound concentration 10 uM
[4] = 0 h, replicate number 1, timepoint 0 hours
[5] = 6 h, replicate number 1, timepoint 6 hours
[6] = 12 h, replicate number 1, timepoint 12 hours
[7] = 18 h, replicate number 1, timepoint 18 hours
[8] = 24 h, replicate number 1, timepoint 24 hours
[9] = 6 h, replicate number 2, timepoint 6 hours
[10] = 12 h, replicate number 2, timepoint 12 hours
[11] = 18 h, replicate number 2, timepoint 18 hours
[12] = 0 h, replicate number 2, timepoint 0 hours
[13] = 24 h, replicate number 2, timepoint 24 hours
Also: filed as whole numbers so only -1 and 0 and 1 occur.

Row | SMILES | Growth Rate [1, 4] | Growth Rate [1, 5] | Growth Rate [1, 6] | Growth Rate [1, 7] | Growth Rate [1, 8] | Growth Rate [2, 4] | Growth Rate [2, 5] | Growth Rate [2, 9] | Growth Rate [2, 6] | Growth Rate [2, 7] | Growth Rate [2, 11] | Growth Rate [2, 8] | Growth Rate [3, 4] | Growth Rate [3, 9] | Growth Rate [3, 6] | Growth Rate [3, 7] | Growth Rate [3, 8] | Growth Rate [1, 12] | Growth Rate [3, 12] | Growth Rate [3, 13] | also measured
1 | CC1(C)CCC(C)(C)c2cc(C(=O)Nc3ccc(C(=O)O)cc3)ccc21 | 0 | 1 | 1 | 1 | 1 | 0 | 1 | 0 | 1 | 1 | 0 | 1 | 0 | 1 | 1 | 1 | 1 |  |  |  | Growth Rate [2, 10]: 0
2 | O[C@H]1CC[C@H](Nc2ncc3nc(Nc4c(F)cc(F)cc4F)n([C@H]4CCOC4)c3n2)CC1 [TANZISERTIB] | 0 |  |  |  |  |  | 0 |  | 1 | 1 |  | 1 | 0 |  | 0 | 0 | 0 | 1 | 1 |  | Growth Rate [2, 12]: 0; Growth Rate [2, 10]: 0; Growth Rate [3, 5]: 0
3 | O=C(O)C1CN(Cc2ccc(-c3nc4cc(Cc5ccccc5F)ccc4s3)c(F)c2)C1 | 1 | 0 | 0 | 0 | 0 | 0 | 1 | 0 | 1 | 1 |  | 1 | 0 | 0 | 1 | 0 | 1 | 0 |  | 0 | Growth Rate [3, 10]: 0; Growth Rate [3, 11]: 1
4 | O=C(N[C@@H](C1CC1)C(F)(F)F)c1cc(-c2cnn3cc(-c4ccc(F)cc4)cnc23)cs1 | 0 |  |  |  |  | 0 | 1 |  | 1 | 1 |  | 1 |  |  | 0 | 0 | 1 | 1 | 1 | 0 | Growth Rate [1, 9]: 1; Growth Rate [1, 10]: 1; Growth Rate [1, 13]: 1; Growth Rate [3, 5]: 0
5 | C[C@H](NC[C@H](O)CP(=O)(O)CC1CCCCC1)c1ccc(Cl)c(Cl)c1.Cl | 1 | 0 | 1 | 1 | 1 | 0 | 0 |  | 1 | 0 |  | 0 | 0 | 0 | 1 | 1 | 1 | 0 |  | 0 | Growth Rate [1, 9]: 1; Growth Rate [1, 11]: 0; Growth Rate [2, 13]: 1; Growth Rate [3, 10]: 0
6 | O=S1(=O)c2cccc3cccc(c23)N1CCCN1CCN(c2ccc(F)cc2)CC1 [FANANSERIN] |  | 0 | 0 | 0 | 0 | 0 | 1 | 0 | 0 | 1 | 0 | 1 |  |  | 1 | 1 | 1 | 0 | 0 |  | Growth Rate [2, 13]: 0
7 | C[C@H](c1ccc(F)cc1)N(Cc1cccc(C(=O)O)c1)C(=O)c1cnc2ccccc2c1 [PF-05105679] | 1 | 0 | 1 | 1 | 1 | 0 |  | 0 | 1 | 1 |  | 1 |  | 1 | 0 | 0 | 0 | 0 | 0 | 1 | Growth Rate [1, 9]: 1; Growth Rate [1, 10]: 0; Growth Rate [1, 13]: 0; Growth Rate [3, 5]: 0; Growth Rate [3, 10]: 1; Growth Rate [3, 11]: 1
8 | CCOC(=O)CCNc1cc(N2CCc3ccccc3CC2)nc(-c2cccnc2)n1 |  | 0 | 0 | 0 | 0 |  | 1 | 0 | 1 | 1 | 0 | 1 |  |  | 1 | 1 | 1 | 1 | 0 | 0 | Growth Rate [2, 12]: 1; Growth Rate [3, 5]: 1; Growth Rate [3, 10]: 0; Growth Rate [3, 11]: 0
9 | O=C(Nc1ccc(Oc2ccc(F)cc2)cc1)N1CCc2ncccc2[C@H]1c1ccc(F)cc1 [BAY-897] | 0 | 0 | 0 | 0 | 0 | 0 | 1 | 0 | 1 | 1 |  | 1 | 0 |  | 1 | 1 | 1 |  |  |  | 
10 | C[C@H](NC(=O)c1cnc2n1[C@](C)(Cc1ccc(C#N)cc1)C(=O)N2c1cc(Cl)c(F)c(Cl)c1)C(=O)NC1(c2ccccn2)CC1 [BI 1950] | 1 | 0 | 0 | 0 | 0 | 0 |  | 0 |  | 1 | 0 | 1 | 0 | 1 | 1 | 1 | 1 | 0 |  |  | Growth Rate [2, 12]: 1; Growth Rate [2, 10]: 0; Growth Rate [2, 13]: 0
11 | CCOc1cn(-c2ccc(F)cc2C)nc1C(=O)Nc1ccc(Oc2ccnc3cc(OC)c(OC)cc23)c(F)c1 | 0 | 1 |  |  | 1 | 1 | 0 | 1 | 0 | 0 | 1 | 0 |  |  | 1 | 1 | 1 |  |  |  | Growth Rate [1, 9]: 0; Growth Rate [1, 10]: 0; Growth Rate [1, 11]: 1; Growth Rate [1, 13]: 0; Growth Rate [2, 10]: 1; Growth Rate [2, 13]: 1
12 | C[C@]1(C(=O)N(CCCC(=O)O)Cc2cccc(Cl)c2)CCN1C(=O)c1csc2ccccc12 [GLPG-0974] | 1 | 1 | 1 | 1 | 1 | 0 | 0 |  | 0 | 1 |  | 1 | 0 | 1 | 1 | 1 | 1 | 0 |  |  | Growth Rate [1, 9]: 0; Growth Rate [1, 10]: 0; Growth Rate [1, 11]: 0; Growth Rate [1, 13]: 0; Growth Rate [2, 12]: 1
